In assay [1] the target is T1, A2a receptor cell membrane (human origin) (Homo sapiens, UniProt P29274).
T1 construct: purchased PerkinElmer RBHA2AM400UA
As to the kind of experiment: Competitive inhibition constant (Ki) for adenosine A2a receptor, [3H]-CGS-21680 radioligand binding. The settings on record: for Ki(A1)/Ki(A2a): selectivity ratio A1 over A2a. Here is the method:
A2a receptor cell membrane (human origin): PerkinElmer, RBHA2AM400UA
A2a test buffer: 50 mM Tris-HCl, 10 mM MgCl2, 1 mM EDTA, pH7.4
(§1) The A1 receptor cell membrane was diluted to 0.025 μg/μl with the A1 test buffer and the A2a receptor cell membrane was diluted to 0.05 μg/μl with the A2a test buffer to obtain an A1 receptor cell membrane dilution and an A2a receptor cell membrane dilution.
(§2) The tested compound and CGS15943 were gradiently diluted with DMSO. 1 μl test compound, high-value control (0.5% DMSO), low-value control (1000 nM CGS15943) were added to a 96-well plate, wherein each well was added with 100 μl A1 receptor cell membrane dilution (containing 2.5 μg cell membrane) to obtain an A1 detection plate. Through the same steps, 100 μl A2a receptor cell membrane dilution (containing 5.0 μg cell membrane) was added to each well of a 96-well plate to obtain an A2a detection plate.
The A1 and A2a detection plates were sealed with a tap, and incubated at room temperature for 1 h and 2 h, respectively.
(§3) Unifilter-96 GF/C filter plate was prepared. The Unifilter-96 GF/C filter plate was added with 50 μl 0.3% PEI in each well, and incubated at room temperature for no less than 0.5 h.
(§4) After the incubation, the reaction solutions in the A1 detection plate and the A2a detection plate were transferred to two Unifilter-96 GF/C filter plates. The filter plates were washed with the corresponding pre-cooled washing buffers, then oven dried. After sealing the bottom of the filter plates, 50 μl of Microscint 20 cocktail scintillation fluid was added. After sealing the top of the filter plates, the plates were read in the counter MicroBeta2 Reader.
(§5) Data analysis: The inhibition rate was calculated according to the following formula:
(§6) Inhibition rate %=100−(the signal value of the tested wells−the signal average of the low-value control)/(the signal average of the high-value control−the signal average of the low-value control)*100.
(§7) IC50 was fitted by EXCEL XLfit. The competitive inhibition constant (Ki) was calculated according to the formula: Ki=IC50/(1+the concentration of the isotope-labelled ligands/Kd); Kd is the dissociation constant of the isotope-labeled ligands.

The target of assay [2] is T2, A1 receptor cell membrane (human origin) (Homo sapiens, UniProt P30542).
T2 construct: purchased PerkinElmer ES-010-M400UA
T2 sequence (P30542 1-326): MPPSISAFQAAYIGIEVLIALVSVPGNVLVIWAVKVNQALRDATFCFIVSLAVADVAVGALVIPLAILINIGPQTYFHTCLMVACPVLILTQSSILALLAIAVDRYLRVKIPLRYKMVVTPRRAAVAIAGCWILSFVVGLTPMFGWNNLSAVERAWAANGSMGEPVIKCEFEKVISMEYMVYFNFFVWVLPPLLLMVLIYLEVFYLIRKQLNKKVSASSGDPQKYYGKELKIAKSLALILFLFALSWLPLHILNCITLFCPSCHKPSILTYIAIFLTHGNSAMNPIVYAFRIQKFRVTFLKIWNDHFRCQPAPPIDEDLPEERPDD
As to the kind of experiment: Competitive inhibition constant (Ki) for adenosine A1 receptor, [3H]-DPCPX radioligand binding. Particulars: [3H]-DPCPX 1.0 nM. The method, then:
Experimental Example 1: Determination of the Competitive Inhibition Constant (Ki) for Adenosine A1 and A2a Receptors
[^3H]-DPCPX: PerkinElmer, NET974250UC
A1 receptor cell membrane (human origin): PerkinElmer, ES-010-M400UA
A1 test buffer: 25 mM HEPES, 5 mM MgCl2, 1 mM CaCl2, 100 mM NaCl, pH7.4
A1 washing buffer: 25 mM HEPES, 5 mM MgCl2, 1 mM CaCl2, 100 mM NaCl, pH7.4
as §1, §2
100 μl of radioisotope-labelled ligand [^3H]-DPCPX (diluted in A1 test buffer, working concentration 1.0 nM) was added to the A1 detection plate, and 100 μl of radioisotope-labelled ligand [^3H]-CGS-21680 (diluted in A2a test buffer, working concentration 6.0 nM) was added to the A2a detection plate. The A1 and A2a detection plates were sealed with a tap, and incubated at room temperature for 1 h and 2 h, respectively.
as §3, §4, §5, §6, §7

Setting [3] is: human A2a receptor cell membrane, [3H]-CGS-21680 6.0 nM, read-out: Ki(A2a).

Like-named read-outs stand apart in the source and are kept apart here.

T1 sequence (P29274 whole entry): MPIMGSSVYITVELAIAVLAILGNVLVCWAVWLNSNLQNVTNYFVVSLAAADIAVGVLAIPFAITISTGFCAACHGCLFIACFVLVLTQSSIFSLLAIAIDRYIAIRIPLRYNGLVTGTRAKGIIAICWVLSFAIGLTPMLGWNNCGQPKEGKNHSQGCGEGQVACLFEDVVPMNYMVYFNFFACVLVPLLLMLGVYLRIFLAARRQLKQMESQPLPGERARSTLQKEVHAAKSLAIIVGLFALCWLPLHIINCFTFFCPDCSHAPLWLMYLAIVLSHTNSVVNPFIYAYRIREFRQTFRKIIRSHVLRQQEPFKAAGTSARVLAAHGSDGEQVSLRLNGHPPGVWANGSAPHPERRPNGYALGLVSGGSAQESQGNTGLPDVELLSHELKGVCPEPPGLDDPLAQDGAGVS

As to `Cc1ncnc2ccc(-c3ccc(N)nc3-c3ccc(F)cc3)cc12` [Compound 1, 6-(4-fluorophenyl)-5-(4-methylquinazolin-6-yl)pyridin-2-amine], the “Ki(A1)/Ki(A2a)” value in assay [1] was found to be 339.0.

Consider `Cc1ncnc2ccc(-c3cc(Br)c(N)nc3-c3ccc(F)cc3)cc12` [Compound 2, 3-bromo-6-(4-fluorophenyl)-5-(4-methylquinazolin-6-yl)pyridin-2-amine], for which the Ki in assay [2] came to 0.291 µM; in assay [1] (setting [3]), 0.0026 µM. The “Ki(A1)/Ki(A2a)” value in assay [1] was 112.1.

For `COC(=O)c1cc(-c2ccc3ncnc(C)c3c2)c(-c2ccc(F)cc2)nc1N` [Compound 3, methyl 2-amino-6-(4-fluorophenyl)-5-(4-methylquinazolin-6-yl) nicotinate], the inhibitory constant (Ki) in assay [2] is 1.09 µM; in assay [1] (setting [3]) it was 0.0049 µM. Also, in assay [1], the “Ki(A1)/Ki(A2a)” value worked out at 222.8.

On to `Cc1ncnc2ccc(-c3cc(C(=O)O)c(N)nc3-c3ccc(F)cc3)cc12` [Compound 4, 2-amino-6-(4-fluorophenyl)-5-(4-methylquinazolin-6-yl)nicotinic acid], for which the Ki in assay [2] amounted to 7.51 µM; in assay [1] (setting [3]) it was 0.0256 µM. Besides, the “Ki(A1)/Ki(A2a)” value in assay [1] was determined as 293.5.

`Cc1ncnc2ccc(-c3cc(C#N)c(N)nc3-c3ccc(F)cc3)cc12` [Compound 5, 2-amino-6-(4-fluorophenyl)-5-(4-methylquinazolin-6-yl) nicotinonitrile]: the inhibition constant Ki came to 0.683 µM in assay [2] and 0.0021 µM in assay [1] (setting [3]). Also, the “Ki(A1)/Ki(A2a)” value in assay [1] amounted to 325.3.

For `CNC(=O)c1cc(-c2ccc3ncnc(C)c3c2)c(-c2ccc(F)cc2)nc1N` [Compound 7, 2-amino-6-(4-fluorophenyl)-N-methyl-5-(4-methylquinazolin-6-yl) nicotinamide], the results for the inhibition constant (Ki) in assay [2] and in assay [1] (setting [3]) were 4.95 µM and 0.0202 µM, respectively. Further, the “Ki(A1)/Ki(A2a)” value in assay [1] worked out at 245.0.

With `Cc1ncnc2ccc(-c3cc(-c4cnn(C)c4)c(N)nc3-c3ccc(F)cc3)cc12` [Compound 8, 6-(4-fluorophenyl)-3-(1-methyl-1H-pyrazol-4-yl)-5-(4-methylquinazolin-6-yl)pyridin-2-amine], the values for the inhibition constant Ki in assay [2] and in assay [1] (setting [3]) were 0.713 µM and 0.0048 µM, respectively. Also, the “Ki(A1)/Ki(A2a)” value in assay [1] was found to be 148.5.

Regarding `Cc1ncnc2ccc(-c3cc(-c4nnn[nH]4)c(N)nc3-c3ccc(F)cc3)cc12` [Compound 9, 6-(4-fluorophenyl)-5-(4-methylquinazolin-6-yl)-3-(1H-tetrazol-5-yl) pyridin-2-amine], the inhibition constant Ki is 1.07 µM in assay [2] and 0.0126 µM in assay [1] (setting [3]). Further, the “Ki(A1)/Ki(A2a)” value in assay [1] came to 85.3.

With `Cc1ncnc2ccc(-c3c(Cl)cc(N)nc3-c3ccc(F)cc3)cc12` [Compound 10, 4-chloro-6-(4-fluorophenyl)-5-(4-methylquinazolin-6-yl)pyridin-2-amine], the inhibition constant (Ki) came out at 0.438 µM in assay [2] and 0.002 µM in assay [1] (setting [3]). The “Ki(A1)/Ki(A2a)” value in assay [1] was determined as 219.0.

As for `Cc1ncnc2ccc(-c3c(C#N)cc(N)nc3-c3ccc(F)cc3)cc12` [Compound 11, 6-amino-2-(4-fluorophenyl)-3-(4-methylquinazolin-6-yl) isonicotinonitrile], the Ki in assay [2] worked out at 0.205 µM; in assay [1] (setting [3]) it was 0.0014 µM. The “Ki(A1)/Ki(A2a)” value in assay [1] was determined as 146.5.

Take `Cc1ncnc2ccc(-c3cc(C(N)=O)c(N)nc3-c3cc(F)cc(F)c3)cc12` [Compound 12, 2-amino-6-(3,5-difluorophenyl)-5-(4-methylquinazolin-6-yl) nicotinamide]: the Ki in assay [2] worked out at 0.374 µM; in assay [1] (setting [3]) it was 0.0068 µM. In assay [1], the “Ki(A1)/Ki(A2a)” value was 54.9.

For `Cc1ncnc2ccc(-c3cc(C(N)=O)c(N)nc3-c3ccccc3F)cc12` [Compound 13, 2-amino-6-(2-fluorophenyl)-5-(4-methylquinazolin-6-yl) nicotinamide], the inhibitory constant (Ki) in assay [2] amounted to 4.38 µM; in assay [1] (setting [3]), 0.0122 µM. In addition, the “Ki(A1)/Ki(A2a)” value in assay [1] is recorded as 359.0.

Regarding `Cc1ncnc2ccc(-c3cc(-c4cnn(CCN(C)C)c4)c(N)nc3-c3ccc(F)cc3)cc12` [Compound 16, 3-(1-(2-(dimethylamino)ethyl)-1H-pyrazol-4-yl)-6-(4-fluorophenyl)-5-(4-methylquinazolin-6-yl)pyridin-2-amine], the inhibition constant Ki in assay [2] was 1.38 µM; in assay [1] (setting [3]), 0.0167 µM. In addition, the “Ki(A1)/Ki(A2a)” value in assay [1] is recorded as 82.6.

Regarding `COCCn1cc(-c2cc(-c3ccc4ncnc(C)c4c3)c(-c3ccc(F)cc3)nc2N)cn1` [Compound 17, 6-(4-fluorophenyl)-3-(1-(2-methoxyethyl)-1H-pyrazol-4-yl)-5-(4-methylquinazolin-6-yl)pyridin-2-amine], affinity in assay [2] was put at a Ki of 0.316 µM. Besides, in assay [1], the inhibition constant Ki came to 0.0023 µM and the “Ki(A1)/Ki(A2a)” value was found to be 137.3.

As to `Cc1ccnc2ccc(-c3cc(C(N)=O)c(N)nc3-c3ccc(F)cc3)cc12` [Compound 22, 2-amino-6-(4-fluorophenyl)-5-(4-methylquinolin-6-yl)nicotinamide], the Ki in assay [2] was 0.106 µM; in assay [1] (setting [3]) it was 0.0016 µM. Moreover, in assay [1], the “Ki(A1)/Ki(A2a)” value is given as 66.3.

With `Cc1ncnc2ccc(-c3cc(-n4cc(C(N)=O)cn4)c(N)nc3-c3ccc(F)cc3)cc12` [Compound 24, 1-(2-amino-6-(4-fluorophenyl)-5-(4-methylquinazolin-6-yl)pyridin-3-yl)-1H-pyrazol-4-carboxamide], the inhibition constant Ki came to 3.48 µM in assay [2] and 0.0232 µM in assay [1] (setting [3]). Moreover, in assay [1], the “Ki(A1)/Ki(A2a)” value was found to be 150.0.

Take `Cc1ncnc2ccc(-c3cc(-c4nnc(C(N)=O)o4)c(N)nc3-c3ccc(F)cc3)cc12` [Compound 25, 5-(2-amino-6-(4-fluorophenyl)-5-(4-methylquinazolin-6-yl)pyridin-3-yl)-1,3,4-oxadiazol-2-carboxamide]: the values for the Ki in assay [2] and in assay [1] (setting [3]) were 0.133 µM and 0.0023 µM, respectively. Moreover, the “Ki(A1)/Ki(A2a)” value in assay [1] is reported as 57.6.

Consider `Cc1cc(-c2cc(-n3cc(C(N)=O)cn3)c(N)nc2-c2ccc(F)cc2)cc(Cl)n1` [Compound 26, 1-(6-amino-2′-chloro-2-(4-fluorophenyl)-6′-methyl-[3,4′-bipyridine]-5-yl)-1H-pyrazol-4-carboxamide], for which the inhibition constant Ki in assay [2] is 4.85 µM; in assay [1] (setting [3]), 0.104 µM.

Turning to `Cc1ccnc2ccc(-c3cc(-c4nnc(C(N)=O)o4)c(N)nc3-c3ccc(F)cc3)cc12` [Compound 29, 5-(2-amino-6-(4-fluorophenyl)-5-(4-methylquinolin-6-yl)pyridin-3-yl)-1,3,4-oxadiazol-2-carboxamide], the inhibition constant (Ki) in assay [2] came to 0.03 µM; in assay [1] (setting [3]), 0.0012 µM. Moreover, the “Ki(A1)/Ki(A2a)” value in assay [1] was determined as 25.0.

The molecule `Cc1cc(-c2cc(-c3cnn(CCC(N)=O)c3)c(N)nc2-c2ccc(F)cc2)cc(Cl)n1` [Compound 30, 3-(4-(6-amino-2′-chloro-2-(4-fluorophenyl)-6′-methyl-[3,4′-bipyridine]-5-yl)-1H-pyrazol-1-yl)propionamide] came in with an inhibition constant (Ki) in assay [2] of 1.93 µM. Also, in assay [1], affinity was put at a Ki of 0.0508 µM and the “Ki(A1)/Ki(A2a)” value worked out at 38.0.

`Cc1ccnc2ccc(-c3cc(-c4cnn(CCC(N)=O)c4)c(N)nc3-c3ccc(F)cc3)cc12` [Compound 31, 3-(4-(2-amino-6-(4-fluorophenyl)-5-(4-methylquinolin-6-yl)pyridin-3-yl)-1H-pyrazol-1-yl)propionamide] displayed an inhibition constant Ki in assay [2] of 0.146 µM. Further, in assay [1], the Ki turned out to be 0.0016 µM and the “Ki(A1)/Ki(A2a)” value is on record as 91.0.

As to `NC(=O)c1cc(-c2ccncc2)c(-c2cccc(F)c2)nc1N` [Control compound 1, reference compound], the results for the inhibition constant Ki in assay [2] and in assay [1] (setting [3]) were 0.0257 µM and 0.138 µM, respectively. In assay [1], the “Ki(A1)/Ki(A2a)” value came to 0.2.

A word on the Ki: it is the equilibrium dissociation constant of an inhibitor or competing ligand from its target.
